Test results published in US10696688B2, “Fused pyrimidines as isoform selective phosphoinositide-3-kinase-alpha inhibitors and process for preparation thereof” (Council of Scientific and Industrial Research, priority 2015, dated 2020).
Values after ≈ are worked out from the molar mass of the structure shown. Values joined by “and” are separate entries in the source; they are usually repeats but may differ in a detail not shown here. Equal entries are not always repeated. Where two headings read alike, the source gives them in different places.

Legend:
[1] = tested on: Ehrlich ascites carcinoma (EAC) cells; assay: In-vivo activity in Ehrlich solid tumor model; set-up: species or system swiss mice; conditions: 22 at 25 mg/kg i.p., 5-fluorouracil at 22 mg/kg i.p., day 1-9; for Day 13 % Tumor Growth Inhibition: day 13, versus saline control
[2] = dead/total animals; 22 at 25 mg/kg i.p., 5-fluorouracil at 22 mg/kg i.p., day 1-9
PI3K-alpha = PI3K-alpha (Homo sapiens, UniProt P42336); assay: PI3K-α assay (ADP-Glo); assay type: biochemical; conditions: for inhibition at 0.5 µM / % PI3Kα inhibition at 500 nM: at 500 nM (0.5 μM), NI = no inhibition at tested concentration; for inhibition at 0.5 µM: read-out: % PI3Kα inhibition at 500 nM; for % PI3Kα inhibition at 500 nM: 0.5 µM
PI3K-alpha, sequence (P42336 whole entry, canonical isoform): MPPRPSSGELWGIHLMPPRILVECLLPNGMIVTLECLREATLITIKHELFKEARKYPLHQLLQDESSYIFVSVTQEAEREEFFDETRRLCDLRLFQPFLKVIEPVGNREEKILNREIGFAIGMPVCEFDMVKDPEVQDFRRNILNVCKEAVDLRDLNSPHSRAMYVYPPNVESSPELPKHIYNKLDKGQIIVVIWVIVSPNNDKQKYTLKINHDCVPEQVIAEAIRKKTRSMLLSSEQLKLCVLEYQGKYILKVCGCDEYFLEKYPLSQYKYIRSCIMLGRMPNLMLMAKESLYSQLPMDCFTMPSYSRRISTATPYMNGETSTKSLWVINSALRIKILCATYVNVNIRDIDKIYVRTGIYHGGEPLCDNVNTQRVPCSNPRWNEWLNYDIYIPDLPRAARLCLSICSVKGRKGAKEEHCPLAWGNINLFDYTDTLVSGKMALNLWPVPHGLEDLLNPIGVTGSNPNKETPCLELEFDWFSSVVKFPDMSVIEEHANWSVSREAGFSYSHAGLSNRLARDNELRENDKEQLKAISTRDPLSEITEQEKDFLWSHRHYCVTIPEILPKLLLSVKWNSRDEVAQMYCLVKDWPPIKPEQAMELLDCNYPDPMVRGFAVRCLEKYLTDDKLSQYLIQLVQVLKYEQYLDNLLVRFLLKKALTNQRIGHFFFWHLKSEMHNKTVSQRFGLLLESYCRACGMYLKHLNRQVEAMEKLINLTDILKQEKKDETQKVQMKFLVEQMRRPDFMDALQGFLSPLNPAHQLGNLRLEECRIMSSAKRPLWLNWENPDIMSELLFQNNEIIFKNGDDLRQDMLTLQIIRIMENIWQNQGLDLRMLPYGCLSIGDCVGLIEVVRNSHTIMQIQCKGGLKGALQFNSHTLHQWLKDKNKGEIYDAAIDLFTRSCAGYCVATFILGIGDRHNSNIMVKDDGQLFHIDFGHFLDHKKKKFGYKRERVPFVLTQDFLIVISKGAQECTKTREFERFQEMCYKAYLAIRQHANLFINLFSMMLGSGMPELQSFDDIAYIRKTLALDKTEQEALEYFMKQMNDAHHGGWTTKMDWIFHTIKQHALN
PI3K-alpha, sequence (P27986 whole entry partner, canonical isoform): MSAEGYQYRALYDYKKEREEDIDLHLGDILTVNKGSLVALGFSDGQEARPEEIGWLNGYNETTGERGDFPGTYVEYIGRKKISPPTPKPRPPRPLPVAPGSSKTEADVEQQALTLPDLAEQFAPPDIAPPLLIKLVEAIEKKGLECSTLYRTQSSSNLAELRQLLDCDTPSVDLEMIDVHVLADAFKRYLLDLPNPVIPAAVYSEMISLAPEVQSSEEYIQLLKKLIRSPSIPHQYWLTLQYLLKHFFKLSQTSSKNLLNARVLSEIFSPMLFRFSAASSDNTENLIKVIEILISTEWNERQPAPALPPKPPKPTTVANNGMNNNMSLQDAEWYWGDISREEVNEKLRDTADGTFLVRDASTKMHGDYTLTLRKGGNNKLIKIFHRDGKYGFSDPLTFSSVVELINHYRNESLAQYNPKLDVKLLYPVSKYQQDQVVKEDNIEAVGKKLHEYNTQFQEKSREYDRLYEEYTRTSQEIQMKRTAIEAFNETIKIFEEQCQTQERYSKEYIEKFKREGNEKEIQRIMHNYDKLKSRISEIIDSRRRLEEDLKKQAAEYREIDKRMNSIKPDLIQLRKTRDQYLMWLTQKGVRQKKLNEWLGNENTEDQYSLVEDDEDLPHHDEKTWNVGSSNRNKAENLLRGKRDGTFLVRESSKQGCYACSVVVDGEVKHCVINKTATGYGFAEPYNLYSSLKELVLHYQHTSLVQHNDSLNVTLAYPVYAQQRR
Protocol: Compounds proposed in present invention were evaluated for their inhibitory activity on phosphoinositide-3-kinase-α and other isoforms (β, γ and δ). The preliminary screening was performed at 0.5 μM. The protocols used for these bioassays are as follows:
PI3K-alpha (diluted in 12.5 mM Glycine-NaOH (pH 8.5), 50 mM KCl, 2.5 mM MgCl2, 1 mM DTT, 0.05% CHAPS) is assayed in total volume of 20 μl containing 12.5 mM glycine-NaOH (pH 8.5), 50 mM KCl, 2.5 mM MgCl2, 1 mM DTT, 0.05% CHAPS, 0.01 mM ATP and 0.05 mM diC8 PIP2. The enzyme is assayed for 80 min after which 20 μl of ADP-Glo reagent is added. After a further incubation of 40 min, 40 μl of Kinase Detection Buffer is added. The assays are incubated for 40 min and then read on PerkinElmer Envision for 1 sec/well.

[3] = Thermodynamic aqueous solubility, 96-well plate protocol; assay type: physicochemical; conditions: for solubility: 25 °C, pH 7, water, thermodynamic from solid
Protocol: The thermodyanamic aqueous solubility was determined using 96-plate plate protocol (Bharate, S. S. and Vishwakarma, R. A. 2015, Bioorg. Med. Chem. Lett. 25, 1561-1567). […] Briefly, the compounds were loaded into 96-well plate in the form of methanolic solution, followed by evaporation of solvent to get 1, 2, 4, 8, 16, 25, 40, 80, 160 and 300 μg of compound in solid form in wells. Thereafter, 200 μl of dissolution medium was added to the wells and plates were shaken horizontally at 300 rpm for 4 h at room temperature (25±1° C.). The plates were covered with aluminium foil and were kept overnight at room temperature for equilibration. Later, the plates were centrifuged at 3000 rpm for 15 min (Jouan centrifuge BR4i). Supernatant (50 μl) was withdrawn into UV 96-well plates (Corning® 96 Well Clear Hat Bottom UV-Transparent Microplate) for analyses with microplate reader (Molecular Devices, USA) at corresponding λmax of the sample. The analysis was performed in triplicate for each compound. The solubility curve of concentration (μg/mL) vs absorbance was plotted to find out saturation point and the corresponding concentration was noted.

[4] = tested on: MDA-MB-231 (breast cancer); assay: Cytotoxicity, MTT assay; assay type: cell-based; conditions: Homo sapiens, 48 h treatment
Protocol: (§1) Selected compounds proposed in the present invention were evaluated for their cytotoxic effect against panel of 3 cancer cell line viz. MIAPaCa-2 (pancreatic cancer), A-549 (lung cancer), and MDA-MB-231 (breast cancer) using MTT assay. In each well of a 96-well plate, 3×10^3 cells were grown in 100 μL of medium. After 24 h, each test molecules were added to achieve a final concentration of 10 to 0.01 μmol/L, respectively. After 48 h of treatment, 20 μL of 2.5 mg/mL MTT (Organics Research, Inc.) solution in phosphate buffer saline was added to each well. […], supernatant was removed and formazan crystals were dissolved in 200 μL of DMSO. Absorbance was then measured at 570 nm using an absorbance plate reader (Bio-Rad Microplate Reader). Data are expressed as the percentage of viable cells in treated relative to non-treated conditions. Each experiment was repeated thrice and data was expressed as mean±SD of three independent experiments (Mordant, P. et al., Mol. Cancer Ther. 2010, 9, 358).

A-549 (lung cancer) = assay: Cytotoxicity, MTT assay; assay type: cell-based; conditions: Homo sapiens, A549, 48 h treatment
Protocol: as §1

[5] = tested on: MIAPaCa-2 (pancreatic cancer); assay: Cytotoxicity, MTT assay; assay type: cell-based; conditions: Homo sapiens, MIA PaCa-2, 48 h treatment
Protocol: as §1

PI3K-delta = PI3K-delta (Homo sapiens, UniProt O00329); assay: PI3K-δ assay (ADP-Glo); assay type: biochemical
PI3K-delta, sequence (O00329 whole entry): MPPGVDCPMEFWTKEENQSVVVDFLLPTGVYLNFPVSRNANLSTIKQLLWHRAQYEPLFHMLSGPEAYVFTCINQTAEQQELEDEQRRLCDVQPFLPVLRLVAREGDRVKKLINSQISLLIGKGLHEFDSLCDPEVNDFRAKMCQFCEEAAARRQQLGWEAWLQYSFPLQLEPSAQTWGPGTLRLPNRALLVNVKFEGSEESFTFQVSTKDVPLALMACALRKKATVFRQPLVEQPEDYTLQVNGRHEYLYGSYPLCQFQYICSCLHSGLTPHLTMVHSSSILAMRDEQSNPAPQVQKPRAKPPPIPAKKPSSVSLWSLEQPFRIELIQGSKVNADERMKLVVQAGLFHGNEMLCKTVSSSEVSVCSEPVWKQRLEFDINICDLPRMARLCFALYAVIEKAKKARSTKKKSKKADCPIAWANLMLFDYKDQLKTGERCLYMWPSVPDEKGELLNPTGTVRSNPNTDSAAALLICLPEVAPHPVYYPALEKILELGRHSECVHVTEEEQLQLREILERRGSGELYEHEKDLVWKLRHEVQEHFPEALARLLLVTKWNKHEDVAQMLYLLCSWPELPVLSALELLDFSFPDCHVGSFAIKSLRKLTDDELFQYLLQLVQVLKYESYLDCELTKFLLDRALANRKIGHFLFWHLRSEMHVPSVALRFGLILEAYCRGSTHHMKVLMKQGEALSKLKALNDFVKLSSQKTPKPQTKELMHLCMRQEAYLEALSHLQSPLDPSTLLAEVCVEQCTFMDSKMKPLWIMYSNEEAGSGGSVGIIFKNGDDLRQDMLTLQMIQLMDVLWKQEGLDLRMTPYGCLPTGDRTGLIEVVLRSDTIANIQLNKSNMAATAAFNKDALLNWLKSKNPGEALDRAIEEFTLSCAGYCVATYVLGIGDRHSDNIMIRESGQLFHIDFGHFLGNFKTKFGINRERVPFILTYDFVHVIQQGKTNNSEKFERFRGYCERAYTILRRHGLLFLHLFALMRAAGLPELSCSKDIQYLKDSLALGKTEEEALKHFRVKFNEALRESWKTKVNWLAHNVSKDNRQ
PI3K-delta, sequence (P27986 whole entry partner): as the sequence (P27986 whole entry partner, canonical isoform) above

PI3K-beta = PI3K-beta (Homo sapiens, UniProt P42338); assay: PI3K-β assay (ADP-Glo); assay type: biochemical
PI3K-beta, sequence (P42338 whole entry): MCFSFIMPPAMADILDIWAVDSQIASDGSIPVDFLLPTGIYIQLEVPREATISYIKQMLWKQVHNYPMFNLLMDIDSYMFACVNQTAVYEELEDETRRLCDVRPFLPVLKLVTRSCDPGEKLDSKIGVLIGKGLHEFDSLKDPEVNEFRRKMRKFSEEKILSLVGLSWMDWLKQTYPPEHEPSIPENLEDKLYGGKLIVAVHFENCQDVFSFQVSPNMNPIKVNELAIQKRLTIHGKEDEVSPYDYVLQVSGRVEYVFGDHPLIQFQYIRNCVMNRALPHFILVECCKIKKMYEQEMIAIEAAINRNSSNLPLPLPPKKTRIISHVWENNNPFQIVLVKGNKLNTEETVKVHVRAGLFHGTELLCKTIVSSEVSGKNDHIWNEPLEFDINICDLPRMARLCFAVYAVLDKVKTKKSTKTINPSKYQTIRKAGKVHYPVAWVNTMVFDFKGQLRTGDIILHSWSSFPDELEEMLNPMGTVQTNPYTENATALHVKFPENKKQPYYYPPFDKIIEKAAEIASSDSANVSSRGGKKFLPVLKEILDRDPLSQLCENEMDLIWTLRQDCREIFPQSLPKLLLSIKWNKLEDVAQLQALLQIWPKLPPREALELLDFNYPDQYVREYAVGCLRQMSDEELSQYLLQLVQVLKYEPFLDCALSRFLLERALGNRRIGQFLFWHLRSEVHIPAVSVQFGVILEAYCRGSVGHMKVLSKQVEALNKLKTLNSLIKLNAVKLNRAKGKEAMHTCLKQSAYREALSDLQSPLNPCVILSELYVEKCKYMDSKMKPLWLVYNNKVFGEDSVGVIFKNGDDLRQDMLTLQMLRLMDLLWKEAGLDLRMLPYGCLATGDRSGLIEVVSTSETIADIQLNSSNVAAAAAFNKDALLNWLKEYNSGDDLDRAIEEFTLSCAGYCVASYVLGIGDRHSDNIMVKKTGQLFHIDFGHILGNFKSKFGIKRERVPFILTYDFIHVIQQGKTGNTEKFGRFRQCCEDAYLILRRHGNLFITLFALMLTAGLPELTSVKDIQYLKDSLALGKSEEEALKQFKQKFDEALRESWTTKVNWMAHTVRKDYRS
PI3K-beta, sequence (P27986 whole entry partner): as the sequence (P27986 whole entry partner, canonical isoform) above

PI3K-gamma = PI3K-gamma (Homo sapiens, UniProt P48736); assay: PI3K-γ assay (ADP-Glo); assay type: biochemical
PI3K-gamma, sequence (P48736 whole entry): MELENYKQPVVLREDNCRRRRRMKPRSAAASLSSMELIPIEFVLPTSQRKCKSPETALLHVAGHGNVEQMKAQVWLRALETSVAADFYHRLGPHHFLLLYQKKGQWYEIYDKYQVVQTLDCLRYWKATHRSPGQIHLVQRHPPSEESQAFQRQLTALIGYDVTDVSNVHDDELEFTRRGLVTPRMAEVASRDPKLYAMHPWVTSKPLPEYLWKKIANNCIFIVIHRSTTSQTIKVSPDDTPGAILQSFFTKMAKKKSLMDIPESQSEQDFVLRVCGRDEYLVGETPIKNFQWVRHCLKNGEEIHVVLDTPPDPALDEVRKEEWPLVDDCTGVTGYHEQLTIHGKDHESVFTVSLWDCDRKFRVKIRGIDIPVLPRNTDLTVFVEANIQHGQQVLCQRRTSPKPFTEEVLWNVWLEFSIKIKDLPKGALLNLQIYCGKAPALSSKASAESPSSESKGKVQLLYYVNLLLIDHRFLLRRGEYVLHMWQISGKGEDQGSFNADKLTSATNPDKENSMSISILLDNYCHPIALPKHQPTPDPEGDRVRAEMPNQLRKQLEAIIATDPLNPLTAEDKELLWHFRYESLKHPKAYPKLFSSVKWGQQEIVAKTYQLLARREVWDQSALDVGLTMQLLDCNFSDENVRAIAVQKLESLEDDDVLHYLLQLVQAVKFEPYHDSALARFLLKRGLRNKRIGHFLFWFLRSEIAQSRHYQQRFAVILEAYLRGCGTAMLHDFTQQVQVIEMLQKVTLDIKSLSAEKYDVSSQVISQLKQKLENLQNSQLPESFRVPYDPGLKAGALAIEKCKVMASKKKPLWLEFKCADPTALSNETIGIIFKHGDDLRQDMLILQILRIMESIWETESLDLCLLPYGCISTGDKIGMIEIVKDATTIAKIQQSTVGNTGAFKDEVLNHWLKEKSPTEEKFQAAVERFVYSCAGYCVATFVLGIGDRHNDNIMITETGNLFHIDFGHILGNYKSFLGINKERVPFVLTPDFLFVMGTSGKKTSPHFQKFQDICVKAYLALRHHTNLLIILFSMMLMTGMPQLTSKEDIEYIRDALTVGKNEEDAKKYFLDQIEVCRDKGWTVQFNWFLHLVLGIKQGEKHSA

[6] = via glucuronidation of phenolic hydroxyl group; cited from earlier work
[7] = water (aqueous, pH 7), pH = 7, read-out: Aqueous Solubility (μg/ml) at pH = 7
[8] = water, pH = 7, read-out: Aqueous Solubility (μg/ml) at pH = 7
[9] = water, in H2O at pH = 7, read-out: Solubility μg/ml in H2O at pH = 7

O=c1[nH]cc(F)c(=O)[nH]1 [5-Fluorouracil, reference compound]
Day 13 % Tumor Growth Inhibition [1]: 50.04% | Day 13 Avg. tumor weights [1]: 929.42 mg | Mortality [2]: 0/7

CC(C)(C)OC(=O)NC1CCN(c2nc(N3CCOCC3)c3oc4ncccc4c3n2)CC1 [Compound 6, tert-butyl (1-(4-morpholinopyrido [3′,2′:4,5]furo[3,2-d]pyrimidin-2-yl)piperidin-4-yl)carbamate]
inhibition at 0.5 µM (PI3K-alpha): 67.3% | solubility [3, 7]: 10 µg/mL (≈ 22 µM)

CCOC(=O)c1ccc(NC(=O)NC2CCN(c3nc(N4CCOCC4)c4oc5ncccc5c4n3)CC2)cc1 [Compound 8, ethyl 4-(3-(1-(4-morpholinopyrido[3′,2′:4,5]furo[3,2-d]pyrimidin-2-yl)piperidin-4-yl)ureido)benzoate]
% PI3Kα inhibition at 500 nM (PI3K-alpha): 85% | inhibition at 0.5 µM (PI3K-alpha): > 70% | IC50 (PI3K-alpha; read-out: IC50 for PI3K (μM) PI3K-α): 0.008 µM | solubility [3, 7]: 10 µg/mL (≈ 18.3 µM) | IC50 [4]: 8 µM | IC50 (A-549 (lung cancer)): 8 µM | IC50 [5]: 8 µM

CN1CCN(C(=O)c2ccc(NC(=O)NC3CCN(c4nc(N5CCOCC5)c5oc6ncccc6c5n4)CC3)cc2)CC1 [Compound 10, 1-(4-(4-methylpiperazine-1-carbonyl)phenyl)-3-(1-(4-morpholinopyrido[3′,2′:4,5]furo[3,2-d]pyrimidin-2-yl)piperidin-4-yl)urea]
% PI3Kα inhibition at 500 nM (PI3K-alpha): 76.8% | inhibition at 0.5 µM (PI3K-alpha): > 70% | IC50 (PI3K-alpha; read-out: IC50 for PI3Kα): 0.08 µM | Aqueous Solubility (μg/ml) at pH = 7 ([3]; pH = 7): 400 μg/ml | solubility [3, 8]: > 200 µg/mL | IC50 [4]: 40 µM | IC50 (A-549 (lung cancer)): 9 µM | IC50 [5]: 8 µM

CC(C)(C)OC(=O)NC1CCN(c2nc(N3CCOCC3)c3sccc3n2)CC1 [Compound 16, tert-butyl (1-(4-morpholino thieno[3,2-d]pyrimidin-2-yl)piperidin-4-yl)carbamate]
inhibition at 0.5 µM (PI3K-alpha): < 0%

CC(C)(C)OC(=O)NC1CCN(c2nc(N3CCOCC3)c3sc(C(C)(C)O)cc3n2)CC1 [Compound 17, tert-butyl (1-(6-(2-hydroxypropan-2-yl)-4-morpholinothieno[3,2-d]pyrimidin-2-yl)piperidin-4-yl)carbamate]
% PI3Kα inhibition at 500 nM (PI3K-alpha): 81% | inhibition at 0.5 µM (PI3K-alpha): > 70% | solubility [3, 7]: 200 µg/mL (≈ 419 µM) | solubility [3, 8]: > 200 µg/mL

CCOC(=O)c1ccc(NC(=O)NC2CCN(c3nc(N4CCOCC4)c4sccc4n3)CC2)cc1 [Compound 21, ethyl 4-(3-(1-(4-morpholinothieno[3,2-d]pyrimidin-2-yl)piperidin-4-yl)ureido)benzoate]
inhibition at 0.5 µM (PI3K-alpha): 59% | solubility [3, 7]: 120 µg/mL (≈ 235 µM)

CCc1ccc(NC(=O)NC2CCN(c3nc(N4CCOCC4)c4sccc4n3)CC2)cc1 [Compound 22, 1-(4-ethylphenyl)-3-(1-(4-morpholinothieno[3,2-d]pyrimidin-2-yl)piperidin-4-yl)urea]
Day 13 % Tumor Growth Inhibition [1]: 32.7% and 32.73% | Day 13 Avg. tumor weights [1]: 1128.4 mg | inhibition at 0.5 µM (PI3K-alpha): 74% | IC50 (PI3K-alpha; read-out: IC50 for PI3Kα): 0.04 µM | solubility [3, 9]: 800 µg/mL (≈ 1710 µM) | IC50 [4]: 4 µM | IC50 (A-549 (lung cancer)): 7 µM | IC50 [5]: 5 µM | Fold-selectivity for PI3K-α with respect to other isoforms PI3K-δ (PI3K-delta): >500 fold | IC50 (PI3K-delta): > 20 µM | % inhibition of PI3K-δ (PI3K-delta; up to 20 μM): 0% | IC50 (PI3K-beta): > 20 µM | Fold-selectivity for PI3K-α with respect to other isoforms PI3K-β (PI3K-beta; PI3K-α versus PI3K-β): >500 fold | % inhibition of PI3K-β (PI3K-beta; up to 20 μM): 0% | IC50 (PI3K-gamma): > 20 µM | Fold-selectivity for PI3K-α with respect to other isoforms PI3K-γ (PI3K-gamma; PI3K-α versus PI3K-γ): >500 fold | % inhibition of PI3K-γ (PI3K-gamma; up to 20 μM): 0%

Cc1ccccc1NC(=O)NC1CCN(c2nc(N3CCOCC3)c3sccc3n2)CC1 [Compound 23, 1-(1-(4-morpholinothieno[3,2-d]pyrimidin-2-yl)piperidin-4-yl)-3-(o-tolyl)urea]
inhibition at 0.5 µM (PI3K-alpha): 68% | solubility [3, 7]: 20 µg/mL (≈ 44.2 µM)

O=C(Nc1ccc(C(F)(F)F)cc1)NC1CCN(c2nc(N3CCOCC3)c3sccc3n2)CC1 [Compound 24, 1-(1-(4-morpholinothieno[3,2-d]pyrimidin-2-yl)piperidin-4-yl)-3-(4-(trifluoromethyl)phenyl)urea]
% PI3Kα inhibition at 500 nM (PI3K-alpha): 70% | inhibition at 0.5 µM (PI3K-alpha): > 70% | IC50 [4]: 8 µM | IC50 (A-549 (lung cancer)): 13 µM | IC50 [5]: 9 µM

O=C(Nc1ccccc1F)NC1CCN(c2nc(N3CCOCC3)c3sccc3n2)CC1 [Compound 25, 1-(2-fluorophenyl)-3-(1-(4-morpholinothieno[3,2-d]pyrimidin-2-yl)piperidin-4-yl)urea]
% PI3Kα inhibition at 500 nM (PI3K-alpha): 76% | inhibition at 0.5 µM (PI3K-alpha): > 70% | solubility [3, 7]: 200 µg/mL (≈ 438 µM) | solubility [3, 8]: > 200 µg/mL

CCOC(=O)c1ccc(NC(=O)NC2CCN(c3nc(N4CCOCC4)c4sc(C(C)(C)O)cc4n3)CC2)cc1 [Compound 26, ethyl 4-(3-(1-(6-(2-hydroxypropan-2-yl)-4-morpholinothieno[3,2-d]pyrimidin-2-yl)piperidin-4-yl)ureido)benzoate]
inhibition at 0.5 µM (PI3K-alpha): 40%

COc1ccc(S(=O)(=O)NC2CCN(c3nc(N4CCOCC4)c4sccc4n3)CC2)cc1 [Compound 27, 4-methoxy-N-(1-(4-morpholinothieno[3,2-d]pyrimidin-2-yl)piperidin-4-yl)benzenesulfonamide]
inhibition at 0.5 µM (PI3K-alpha): 33%

CC(C)(C)c1ccc(S(=O)(=O)NC2CCN(c3nc(N4CCOCC4)c4sccc4n3)CC2)cc1 [Compound 28, 4-(tert-butyl)-N-(1-(4-morpholinothieno[3,2-d]pyrimidin-2-yl)piperidin-4-yl)benzenesulfonamide]
inhibition at 0.5 µM (PI3K-alpha): 56% | solubility [3, 7]: 20 µg/mL (≈ 38.8 µM)

O=S(=O)(NC1CCN(c2nc(N3CCOCC3)c3sccc3n2)CC1)c1ccc2ccccc2c1 [Compound 30, N-(1-(4-morpholinothieno [3,2-d]pyrimidin-2-yl)piperidin-4-yl)naphthalene-2-sulfonamide]
inhibition at 0.5 µM (PI3K-alpha): 54.8% | solubility [3, 7]: 5 µg/mL (≈ 9.81 µM)

CS(=O)(=O)N1CCN(Cc2cc3nc(-c4cccc5[nH]ncc45)nc(N4CCOCC4)c3s2)CC1 [GDC-0941, reference compound]
solubility [3, 9]: 16 µg/mL (≈ 31.1 µM)

Oc1cccc(-c2nc(N3CCOCC3)c3oc4ncccc4c3n2)c1 [PI-103, reference compound]
solubility [3, 9]: 5 µg/mL (≈ 14.4 µM) | metabolism [6]: rapid metabolism
